Values after ≈ are worked out from the molar mass of the structure shown. Some results are limits rather than exact numbers.

In experiment [1] the test system is Staphylococcus aureus. The experiment can be described thus: Antibacterial activity against methicillin-susceptible Staphylococcus aureus ATCC 29213 by CLSI M100-S17 protocol based broth dilution method. It counts as functional.
In experiment [2] the test system is Staphylococcus aureus. The experiment can be described thus: Antibacterial activity against methicillin-resistant Staphylococcus aureus isolate SA1114 by CLSI M100-S17 protocol based broth dilution method. It counts as functional.

By MIC is commonly meant the lowest concentration found to suppress growth. Read a low MIC as greater potency. As for `CC[C@@H](C)[C@@H](NC(=O)[C@@H](CCC(N)=O)NC(=O)[C@H](CO)NC(=O)[C@@H](NC(=O)[C@@H](Cc1ccccc1)NC)[C@@H](C)CC)C(=O)N[C@H](C(=O)N[C@@H](CO)C(=O)N[C@H]1C(=O)N[C@@H](C)C(=O)N[C@@H](Cc2ccc(C)cc2)C(=O)N[C@@H]([C@@H](C)CC)C(=O)O[C@H]1C)[C@@H](C)CC`, the figures for the MIC in the experiment on Staphylococcus aureus [1] and in the experiment with Staphylococcus aureus [2] were 1 µg/mL (≈ 0.8 µM) and ≥ 32 µg/mL, respectively.

As to `CC[C@@H](C)[C@@H](NC(=O)[C@@H](CCC(N)=O)NC(=O)[C@H](CO)NC(=O)[C@@H](NC(=O)[C@@H](Cc1ccccc1)NC)[C@@H](C)CC)C(=O)N[C@H](C(=O)N[C@@H](CO)C(=O)N[C@H]1C(=O)N[C@@H](C)C(=O)N[C@@H](CSC(C)(C)C)C(=O)N[C@@H]([C@@H](C)CC)C(=O)O[C@H]1C)[C@@H](C)CC`, the minimum inhibitory concentration (MIC) came to 2 µg/mL (≈ 1.6 µM) against Staphylococcus aureus [1] and 4 µg/mL (≈ 3.21 µM) against Staphylococcus aureus [2].

Regarding `CC[C@@H](C)[C@@H](NC(=O)[C@@H](CCC(N)=O)NC(=O)[C@H](CO)NC(=O)[C@@H](NC(=O)[C@@H](Cc1ccccc1)NC)[C@@H](C)CC)C(=O)N[C@H](C(=O)N[C@@H](CO)C(=O)N[C@H]1C(=O)N[C@@H](C)C(=O)N[C@@H](CO)C(=O)N[C@@H]([C@@H](C)CC)C(=O)O[C@H]1C)[C@@H](C)CC`, the minimum inhibitory concentration (MIC) in the experiment with Staphylococcus aureus [1] and in the experiment with Staphylococcus aureus [2] was 16 µg/mL (≈ 13.6 µM) each time.

On to `CC[C@@H](C)[C@@H](NC(=O)[C@@H](CCC(N)=O)NC(=O)[C@H](CO)NC(=O)[C@@H](NC(=O)[C@@H](Cc1ccccc1)NC)[C@@H](C)CC)C(=O)N[C@H](C(=O)N[C@@H](CO)C(=O)N[C@H]1C(=O)N[C@@H](C)C(=O)N[C@@H](CCC(N)=O)C(=O)N[C@@H]([C@@H](C)CC)C(=O)O[C@H]1C)[C@@H](C)CC`, for which the minimal inhibitory concentration (MIC) against Staphylococcus aureus [1] and with Staphylococcus aureus [2] was 16 µg/mL (≈ 13.2 µM) in each case.

In the case of `CC[C@@H](C)[C@@H](NC(=O)[C@@H](CCC(N)=O)NC(=O)[C@H](CO)NC(=O)[C@@H](NC(=O)[C@@H](Cc1ccccc1)NC)[C@@H](C)CC)C(=O)N[C@H](C(=O)N[C@@H](CO)C(=O)N[C@H]1C(=O)N[C@@H](C)C(=O)N[C@@H](CC(=O)O)C(=O)N[C@@H]([C@@H](C)CC)C(=O)O[C@H]1C)[C@@H](C)CC`, the MIC with Staphylococcus aureus [1] and in the experiment with Staphylococcus aureus [2] was ≥ 32 µg/mL in each case.

With `CC[C@@H](C)[C@@H](NC(=O)[C@@H](CCC(N)=O)NC(=O)[C@H](CO)NC(=O)[C@@H](NC(=O)[C@@H](Cc1ccccc1)NC)[C@@H](C)CC)C(=O)N[C@H](C(=O)N[C@@H](CO)C(=O)N[C@H]1C(=O)N[C@@H](C)C(=O)N[C@@H]([C@@H](C)O)C(=O)N[C@@H]([C@@H](C)CC)C(=O)O[C@H]1C)[C@@H](C)CC`, the MIC against Staphylococcus aureus [1] was determined as 8 µg/mL (≈ 6.73 µM); with Staphylococcus aureus [2], 16 µg/mL (≈ 13.5 µM).

Take `CC[C@@H](C)[C@@H](NC(=O)[C@@H](CCC(N)=O)NC(=O)[C@H](CO)NC(=O)[C@@H](NC(=O)[C@@H](Cc1ccccc1)NC)[C@@H](C)CC)C(=O)N[C@H](C(=O)N[C@@H](CO)C(=O)N[C@H]1C(=O)N[C@@H](C)C(=O)N[C@@H](CCSC)C(=O)N[C@@H]([C@@H](C)CC)C(=O)O[C@H]1C)[C@@H](C)CC`: the MIC against Staphylococcus aureus [1] was 0.25 µg/mL (≈ 0.205 µM); in the experiment on Staphylococcus aureus [2], 1 µg/mL (≈ 0.82 µM).

Regarding `CC[C@@H](C)[C@@H](NC(=O)[C@@H](CCC(N)=O)NC(=O)[C@H](CO)NC(=O)[C@@H](NC(=O)[C@@H](Cc1ccccc1)NC)[C@@H](C)CC)C(=O)N[C@H](C(=O)N[C@@H](CO)C(=O)N[C@H]1C(=O)N[C@@H](C)C(=O)N[C@@H](CCC(=O)O)C(=O)N[C@@H]([C@@H](C)CC)C(=O)O[C@H]1C)[C@@H](C)CC`, the MIC against Staphylococcus aureus [1] and against Staphylococcus aureus [2] was ≥ 32 µg/mL throughout.

(Values after ChEMBL document CHEMBL4184242, “Synthesis and antibacterial studies of teixobactin analogues with non-isostere substitution of enduracididine” (2018).)
